Data as given in the supplement of paper PMC10307832.

Legend:
Assay in all cases: relative viability (nuclei count vs DMSO), 5 days (fraction); higher = more cells survive
LU99A = system: LU99A
In short: (§1)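 One day after seeding in 1536-well plates, lung cancer cell lines were dosed by pin tool. Dosing was either single-drug or a fixed anchor-drug dose plus five library-drug doses (not always all listed) in √10 steps. After 5 days, nuclei were stained in one fix-and-stain step and counted on 4× images, and relative viability is the nuclei count of treated wells over that of vehicle wells, given as the median of duplicate plates.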

NCI-H460 = system: NCI-H460
In short: as §1

NCI-H1437 = system: NCI-H1437
In short: as §1

BEN = system: BEN
In short: as §1

NCI-H1734 = system: NCI-H1734
In short: as §1

NCI-H2085 = system: NCI-H2085
In short: as §1

NCI-H1355 = system: NCI-H1355
In short: as §1

NCI-H1650 = system: NCI-H1650
In short: as §1

NCI-H1793 = system: NCI-H1793
In short: as §1

SK-LU-1 = system: SK-LU-1
In short: as §1

NCI-H1975 = system: NCI-H1975
In short: as §1

CAL-12T = system: CAL-12T
In short: as §1

COR-L23 = system: COR-L23
In short: as §1

NCI-H441 = system: NCI-H441
In short: as §1

NCI-H2342 = system: NCI-H2342
In short: as §1

NCI-H1563 = system: NCI-H1563
In short: as §1

NCI-H1651 = system: NCI-H1651
In short: as §1

LOU-NH91 = system: LOU-NH91
In short: as §1

NCI-H358 = system: NCI-H358
In short: as §1

NCI-H838 = system: NCI-H838
In short: as §1

NCI-H2023 = system: NCI-H2023
In short: as §1

Nc1ccn([C@@H]2O[C@H](CO)[C@@H](O)[C@@H]2O)c(=O)n1 [Cytarabine] + CCNC(=O)c1noc(-c2cc(C(C)C)c(O)cc2O)c1-c1ccc(CN2CCOCC2)cc1 [Luminespib] (partner 0.01 µM)
relative viability (LU99A; first compound 0.005 µM): 0.209 | relative viability (LU99A; first compound 0.01581 µM): 0.199 | relative viability (LU99A; first compound 0.05 µM): 0.217 | relative viability (LU99A; first compound 0.1581 µM): 0.167 | relative viability (LU99A; first compound 0.5 µM): 0.201 | relative viability (NCI-H460; first compound 0.005 µM): 0.036 | relative viability (NCI-H460; first compound 0.01581 µM): 0.0332 | relative viability (NCI-H460; first compound 0.05 µM): 0.0248 | relative viability (NCI-H460; first compound 0.1581 µM): 0.0172 | relative viability (NCI-H460; first compound 0.5 µM): 0.0144 | relative viability (NCI-H1437; first compound 0.005 µM): 0.86 | relative viability (NCI-H1437; first compound 0.01581 µM): 0.852 | relative viability (NCI-H1437; first compound 0.05 µM): 0.571 | relative viability (NCI-H1437; first compound 0.1581 µM): 0.301 | relative viability (NCI-H1437; first compound 0.5 µM): 0.23 | relative viability (BEN; first compound 0.005 µM): 0.178 | relative viability (BEN; first compound 0.01581 µM): 0.324 | relative viability (BEN; first compound 0.05 µM): 0.247 | relative viability (BEN; first compound 0.1581 µM): 0.178 | relative viability (BEN; first compound 0.5 µM): 0.122 | relative viability (NCI-H1734; first compound 0.005 µM): 0.251 | relative viability (NCI-H1734; first compound 0.01581 µM): 0.162 | relative viability (NCI-H1734; first compound 0.05 µM): 0.138 | relative viability (NCI-H1734; first compound 0.1581 µM): 0.139 | relative viability (NCI-H1734; first compound 0.5 µM): 0.134 | relative viability (NCI-H2085; first compound 0.005 µM): 0.426 | relative viability (NCI-H2085; first compound 0.01581 µM): 0.459 | relative viability (NCI-H2085; first compound 0.05 µM): 0.455 | relative viability (NCI-H2085; first compound 0.1581 µM): 0.415 | relative viability (NCI-H2085; first compound 0.5 µM): 0.339 | relative viability (NCI-H1355; first compound 0.005 µM): 0.612 | relative viability (NCI-H1355; first compound 0.01581 µM): 0.734 | relative viability (NCI-H1355; first compound 0.05 µM): 0.623 | relative viability (NCI-H1355; first compound 0.1581 µM): 0.344 | relative viability (NCI-H1355; first compound 0.5 µM): 0.402 | relative viability (NCI-H1650; first compound 0.005 µM): 0.208 | relative viability (NCI-H1650; first compound 0.01581 µM): 0.181 | relative viability (NCI-H1650; first compound 0.05 µM): 0.254 | relative viability (NCI-H1650; first compound 0.1581 µM): 0.218 | relative viability (NCI-H1650; first compound 0.5 µM): 0.209 | relative viability (NCI-H1793; first compound 0.005 µM): 0.201 | relative viability (NCI-H1793; first compound 0.01581 µM): 0.186 | relative viability (NCI-H1793; first compound 0.05 µM): 0.232 | relative viability (NCI-H1793; first compound 0.1581 µM): 0.184 | relative viability (NCI-H1793; first compound 0.5 µM): 0.155 | relative viability (SK-LU-1; first compound 0.005 µM): 0.178 | relative viability (SK-LU-1; first compound 0.01581 µM): 0.183 | relative viability (SK-LU-1; first compound 0.05 µM): 0.214 | relative viability (SK-LU-1; first compound 0.1581 µM): 0.185 | relative viability (SK-LU-1; first compound 0.5 µM): 0.185 | relative viability (NCI-H1975; first compound 0.005 µM): 0.536 | relative viability (NCI-H1975; first compound 0.01581 µM): 0.316 | relative viability (NCI-H1975; first compound 0.05 µM): 0.193 | relative viability (NCI-H1975; first compound 0.1581 µM): 0.209 | relative viability (NCI-H1975; first compound 0.5 µM): 0.171 | relative viability (CAL-12T; first compound 0.005 µM): 0.227 | relative viability (CAL-12T; first compound 0.01581 µM): 0.288 | relative viability (CAL-12T; first compound 0.05 µM): 0.64 | relative viability (CAL-12T; first compound 0.1581 µM): 0.217 | relative viability (CAL-12T; first compound 0.5 µM): 0.178 | relative viability (COR-L23; first compound 0.005 µM): 0.481 | relative viability (COR-L23; first compound 0.01581 µM): 0.789 | relative viability (COR-L23; first compound 0.05 µM): 0.628 | relative viability (COR-L23; first compound 0.1581 µM): 0.257 | relative viability (COR-L23; first compound 0.5 µM): 0.163 | relative viability (NCI-H441; first compound 0.005 µM): 0.283 | relative viability (NCI-H441; first compound 0.01581 µM): 0.252 | relative viability (NCI-H441; first compound 0.05 µM): 0.354 | relative viability (NCI-H441; first compound 0.1581 µM): 0.266 | relative viability (NCI-H441; first compound 0.5 µM): 0.271 | relative viability (NCI-H2342; first compound 0.005 µM): 0.597 | relative viability (NCI-H2342; first compound 0.01581 µM): 0.723 | relative viability (NCI-H2342; first compound 0.05 µM): 0.642 | relative viability (NCI-H2342; first compound 0.1581 µM): 0.462 | relative viability (NCI-H2342; first compound 0.5 µM): 0.444 | relative viability (NCI-H1563; first compound 0.005 µM): 0.628 | relative viability (NCI-H1563; first compound 0.01581 µM): 0.506 | relative viability (NCI-H1563; first compound 0.05 µM): 0.432 | relative viability (NCI-H1563; first compound 0.1581 µM): 0.407 | relative viability (NCI-H1563; first compound 0.5 µM): 0.455 | relative viability (NCI-H1651; first compound 0.005 µM): 0.751 | relative viability (NCI-H1651; first compound 0.01581 µM): 1.02 | relative viability (NCI-H1651; first compound 0.05 µM): 0.954 | relative viability (NCI-H1651; first compound 0.1581 µM): 0.705 | relative viability (NCI-H1651; first compound 0.5 µM): 0.262 | relative viability (LOU-NH91; first compound 0.005 µM): 0.362 | relative viability (LOU-NH91; first compound 0.01581 µM): 0.361 | relative viability (LOU-NH91; first compound 0.05 µM): 0.321 | relative viability (LOU-NH91; first compound 0.1581 µM): 0.316 | relative viability (LOU-NH91; first compound 0.5 µM): 0.317 | relative viability (NCI-H358; first compound 0.005 µM): 0.338 | relative viability (NCI-H358; first compound 0.01581 µM): 0.582 | relative viability (NCI-H358; first compound 0.05 µM): 0.34 | relative viability (NCI-H358; first compound 0.1581 µM): 0.144 | relative viability (NCI-H358; first compound 0.5 µM): 0.181 | relative viability (NCI-H838; first compound 0.005 µM): 0.234 | relative viability (NCI-H838; first compound 0.01581 µM): 0.3 | relative viability (NCI-H838; first compound 0.05 µM): 0.303 | relative viability (NCI-H838; first compound 0.1581 µM): 0.186 | relative viability (NCI-H838; first compound 0.5 µM): 0.167 | relative viability (NCI-H2023; first compound 0.005 µM): 0.604 | relative viability (NCI-H2023; first compound 0.01581 µM): 0.235 | relative viability (NCI-H2023; first compound 0.05 µM): 0.19 | relative viability (NCI-H2023; first compound 0.1581 µM): 0.0889 | relative viability (NCI-H2023; first compound 0.5 µM): 0.0897
